Reference: patent publication US8785468B2, “Phenylalanine amide derivatives useful for treating insulin-related diseases and conditions” (Amgen Inc., priority 2009, dated 2014)
pEC50: −log10 of the molar value. Counter-ions that a name gives are not always drawn.

Target: T1, human receptor found in pancreatic islet cells (Homo sapiens, UniProt Q7Z601)
T1 sequence (Q7Z601 1-462): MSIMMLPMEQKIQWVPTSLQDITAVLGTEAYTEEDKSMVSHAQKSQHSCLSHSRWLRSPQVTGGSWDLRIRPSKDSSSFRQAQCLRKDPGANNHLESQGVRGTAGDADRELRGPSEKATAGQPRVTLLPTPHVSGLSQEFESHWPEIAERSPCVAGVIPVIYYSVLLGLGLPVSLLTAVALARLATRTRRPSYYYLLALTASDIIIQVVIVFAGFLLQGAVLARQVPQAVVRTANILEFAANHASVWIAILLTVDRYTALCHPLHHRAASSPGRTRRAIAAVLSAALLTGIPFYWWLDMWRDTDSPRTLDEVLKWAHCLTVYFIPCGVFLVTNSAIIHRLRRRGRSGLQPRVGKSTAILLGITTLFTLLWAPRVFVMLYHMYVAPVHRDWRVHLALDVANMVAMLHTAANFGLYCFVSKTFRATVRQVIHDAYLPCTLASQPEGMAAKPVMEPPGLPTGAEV
Experiment: Activation of intracellular IP3 signaling in transfected cells (Activation Assay)
Assay type: cell-based
Details: calculated from IP3 concentration measurements in cells transfected with the human receptor
Experimental: Table 12 provides exemplary compounds that were prepared and assessed, following protocols known to those of skilled in the art, for activation of intracellular inositol trisphosphate (IP3) signaling pathways that lead to elevation of intracellular calcium concentration. EC50 values provided in Table 12 were calculated from IP3 concentration measurements in cells transfected with a human receptor found in pancreatic islet cells, inter alia.

Row | SMILES | pEC50
1 | CC(C)(C)OC(=O)CN[C@@H](Cc1ccc(F)cc1)C(=O)Nc1cccc(-c2ccncc2)c1 [Example 34.4] | 7.00 to 7.30
2 | O=C(Nc1cccc(-c2ccc(F)cc2)c1)[C@H](Cc1ccccc1)NCc1cscn1 [Example 44] | 6.00 to 7.00
3 | O=C(Nc1cc(-c2ccncc2)c[nH]c1=O)[C@H](Cc1cccc(Cl)c1)NCc1cscn1 [Example 25.1, (S)-3-(3-Chlorophenyl)-N-(2-oxo-5-(pyridin-4-yl)-1,2-dihydropyridin-3-yl)-2-(thiazol-4-ylmethylamino)propanamide trifluoroacetate] | 6.00 to 7.00
4 | CN(C(=O)[C@H](Cc1ccccc1)NCc1cscn1)c1cccc(-c2ccncc2)c1 [Example 34.8, (S)—N-Methyl-3-phenyl-N-(3-(pyridin-4-yl)phenyl)-2-(thiazol-4-ylmethylamino)propanamide] | 5.00 to 6.00
5 | CCCn1nc(-c2ccnc(NC)c2)cc1NC(=O)[C@H](Cc1ccc(F)cc1)NCc1cscn1 [Example 42, (2S)-3-(4-fluorophenyl)-N-(3-(2-(methylamino)pyridin-4-yl)-1-propyl-1H-pyrazol-5-yl)-2-(thiazol-4-ylmethylamino)propanamide] | > 7.30
6 | O=C(Nc1nccc(-c2ccncc2)n1)[C@H](Cc1ccccc1)NCc1cscn1 [Example 10, (S)-3-phenyl-N-(4-(pyridin-4-yl)pyrimidin-2-yl)-2-(thiazol-4-ylmethylamino)propanamide] | 6.00 to 7.00
7 | CNc1cc(-c2cc(NC(=O)[C@H](Cc3ccccc3)NCc3cscn3)n(C)n2)ccn1 [Example 23.10, (2S)—N-(1-methyl-3-(2-(methylamino)pyridin-4-yl)-1H-pyrazol-5-yl)-3-phenyl-2-(thiazol-4-ylmethylamino)propanamide] | > 7.30
8 | Cc1nnc(-c2cc(-c3ccncc3)cc3c2CCN3C(=O)[C@H](Cc2ccccc2)NCc2cscn2)o1 [Example 67, (2S)-1-(4-(5-Methyl-1,3,4-oxadiazol-2-yl)-6-(pyridin-4-yl)indolin-1-yl)-3-phenyl-2-(thiazol-4-ylmethylamino)propan-1-one] | 7.00 to 7.30
9 | O=C(Nc1cccc(-c2ccncc2)c1)[C@@H](Cc1ccccc1)NCc1cscn1 [Example 34.5, (R)-3-Phenyl-N-(3-(pyridin-4-yl)phenyl)-2-(thiazol-4-ylmethylamino)propanamide trifluoroacetate] | 5.00 to 6.00
10 | Cn1nc(-c2ccncc2)cc1NC(=O)[C@H](Cc1ccccc1)NCC1CC1 [Example 17.6, (S)-2-(Cyclopropylmethylamino)-N-(1-methyl-3-(pyridin-4-yl)-1H-pyrazol-5-yl)-3-phenylpropanamide] | 6.00 to 7.00
11 | CNc1cc(-c2cc(NC(=O)[C@H](Cc3ccc(F)cc3)NCc3nnn[nH]3)n(C)n2)ccn1 [Example 23.11, (2S)-2-((1H-tetrazol-5-yl)methylamino)-3-(4-fluorophenyl)-N-(1-methyl-3-(2-(methylamino)pyridin-4-yl)-1H-pyrazol-5-yl)propanamide] | 7.00 to 7.30
12 | Cc1cc(-c2cc(NC(=O)[C@H](Cc3ccc(F)cc3)NCC(=O)O)n(C)n2)ccn1 [Example 16.2, 2-((S)-3-(4-Fluorophenyl)-1-(1-methyl-3-(2-methylpyridin-4-yl)-1H-pyrazol-5-ylamino)-1-oxopropan-2-ylamino)acetic acid dihydrochloride] | 7.00 to 7.30
13 | O=C(Nc1cccc(-c2ccncc2F)c1)[C@H](Cc1ccccc1)NCc1cscn1 [Example 34.21, (2S)—N-(3-(3-Fluoropyridin-4-yl)phenyl)-3-phenyl-2-(thiazol-4-ylmethylamino)propanamide TFA salt] | 5.00 to 6.00
14 | C[C@H](N[C@@H](Cc1ccccc1)C(=O)Nc1nnc(-c2ccncc2)s1)c1ccccn1 [Example 1.2, (S)-3-phenyl-2-((S)-1-(pyridin-2-yl)ethylamino)-N-(5-(pyridin-4-yl)-1,3,4-thiadiazol-2-yl)propanamide] | 6.00 to 7.00
15 | O=C(O)CN[C@@H](Cc1ccccc1)C(=O)Nc1cc(-c2ccncc2)nn1CC(F)(F)F [Example 24, (S)-2-(1-Oxo-3-phenyl-1-(3-(pyridin-4-yl)-1-(2,2,2-trifluoroethyl)-1H-pyrazol-5-ylamino)propan-2-ylamino)acetic acid] | > 7.30
16 | CNc1cc(-c2cc(NC(=O)[C@H](Cc3ccc(F)cc3)NCc3ccn(C)n3)n(C)n2)ccn1 [Example 23.4, (2S)-3-(4-Fluorophenyl)-2-((1-methyl-1H-pyrazol-3-yl)methylamino)-N-(1-methyl-3-(2-(methylamino)pyridin-4-yl)-1H-pyrazol-5-yl)propanamide] | 7.00 to 7.30
17 | Cc1cc(-c2cc(Cl)cc(NC(=O)[C@H](Cc3ccccc3)NCc3ccccn3)c2)ccn1 [Example 46, (2S)—N-(3-chloro-5-(2-methylpyridin-4-yl)phenyl)-3-phenyl-2-(pyridin-2-ylmethylamino)propanamide] | 7.00 to 7.30
18 | NC(=O)c1cc(-c2ccncc2)cc2c1CCN2C(=O)[C@H](Cc1ccccc1)NCc1cscn1 [Example 60, (S)-1-(3-Phenyl-2-(thiazol-4-ylmethylamino)propanoyl)-6-(pyridin-4-yl)indoline-4-carboxamide] | 6.00 to 7.00
19 | COC(=O)COc1cc(NC(=O)[C@H](Cc2ccccc2)NCc2cscn2)cc(-c2ccnc(C)c2)c1 [Example 65, Methyl 2-(3-(2-methylpyridin-4-yl)-5-((S)-3-phenyl-2-(thiazol-4-ylmethylamino)propanamido)phenoxy)acetate] | 6.00 to 7.00
20 | O=C(Nc1cc(-c2ccncc2)ccc1O)[C@H](Cc1ccccc1)NCc1cscn1 [Example 13, (S)—N-(2-hydroxy-5-(pyridin-4-yl)phenyl)-3-phenyl-2-(thiazol-4-ylmethylamino)propanamide] | > 7.30
21 | Cc1cc(-c2cnc(OCC(=O)OC(C)(C)C)c(NC(=O)[C@H](Cc3ccccc3)NCc3cscn3)c2)ccn1 [Example 78, tert-Butyl 2-(5-(2-methylpyridin-4-yl)-3-((S)-3-phenyl-2-(thiazol-4-ylmethylamino)propanamido)pyridin-2-yloxy)acetate] | > 7.30
22 | O=C(Nc1cccc(-c2ccncc2)c1)[C@H](Cc1ccccc1)NCc1cscn1 [Example 34.14, (S)-3-Phenyl-N-(3-(pyridin-4-yl)phenyl)-2-(thiazol-4-ylmethylamino)propanamide] | 7.00 to 7.30
23 | COC(=O)C1CN(Cc2cc(NC(=O)[C@H](Cc3ccccc3)NCc3ccccn3)cc(-c3ccnc(C)c3)c2)C1 [Example 80, Methyl 1-((16S)-3-(2-methylpyridin-4-yl)-5-((S)-3-phenyl-2-(pyridin-2-ylmethylamino)propanamido)benzyl)azetidine-3-carboxylate] | 6.00 to 7.00
24 | Cc1cc(-c2cccc(NC(=O)[C@H](Cc3ccccc3)NCc3cscn3)c2)ccn1 [Example 39, (2S)—N-(3-(2-methylpyridin-4-yl)phenyl)-3-phenyl-2-(thiazol-4-ylmethylamino)propanamide] | 7.00 to 7.30
25 | CN(C)C(=O)c1cc(NC(=O)[C@H](Cc2ccccc2)NCc2cscn2)cc(-c2ccncc2)c1 [Example 55, (S)—N,N-Dimethyl-3-(3-phenyl-2-(thiazol-4-ylmethylamino)propanamido)-5-(pyridin-4-yl)benzamide] | 6.00 to 7.00

Results, then the molecule that gave them:

Row | pEC50 | SMILES
26 | 6.00 to 7.00 | COC(=O)c1cc(-c2ccncc2)cc2c1CCN2C(=O)[C@H](Cc1ccccc1)NCc1cscn1 [Example 54.8, TFA salt]
27 | 5.00 to 6.00 | Cc1cc(-c2cc(NC(=O)[C@@H](N)Cc3ccc(Cl)cc3Cl)cc(C(=O)O)c2)ccn1 [Example 49.1, 3-((S)-2-Amino-3-(2,4-dichlorophenyl)propanamido)-5-(2-methylpyridin-4-yl)benzoic acid]
28 | 7.00 to 7.30 | CNc1cc(-c2cc(NC(=O)[C@H](Cc3ccc(F)cc3)NCc3cscn3)n(C(C)C)n2)ccn1 [Example 43.2]
29 | 6.00 to 7.00 | O=C(O)c1cc(NC(=O)[C@H](Cc2ccccc2)NCc2cc[nH]n2)cc(-c2ccncc2)c1 [Example 45.5, (S)-3-(2-((1H-Pyrazol-3-yl)methylamino)-3-phenylpropanamido)-5-(pyridin-4-yl)benzoic acid]
30 | 6.00 to 7.00 | Cc1cc(-c2cc(NC(=O)[C@H](Cc3ccccc3)NCc3cscn3)cc(C(=O)O)c2)ccn1 [Example 49.2, 3-(2-Methylpyridin-4-yl)-5-((S)-3-phenyl-2-(thiazol-4-ylmethylamino)propanamido)benzoic acid TFA salt]
31 | 7.00 to 7.30 | O=C(O)c1cc(NC(=O)[C@H](Cc2ccccc2)NCc2ccccn2)cc(-c2ccncc2)c1 [Example 45.6, (S)-3-(3-Phenyl-2-(pyridin-2-ylmethylamino)propanamido)-5-(pyridin-4-yl)benzoic acid]
32 | 6.00 to 7.00 | O=C(O)c1cc(NC(=O)[C@H](Cc2ccccc2)NCc2nccs2)cc(-c2ccncc2)c1 [Example 45.3, (S)-3-(3-Phenyl-2-(thiazol-2-ylmethylamino)propanamido)-5-(pyridin-4-yl)benzoic acid]
33 | 6.00 to 7.00 | COc1ncc(-c2ccncc2)cc1NC(=O)[C@H](Cc1ccccc1)N[C@@H](C)c1ccccn1 [Example 35.2, (S)—N-(2-Methoxy-5-(pyridin-4-yl)pyridin-3-yl)-3-phenyl-2-((S)-1-(pyridin-2-yl)ethylamino)propanamide]
34 | 7.00 to 7.30 | COC(=O)c1cc(-c2ccncc2)cc2c1CCN2C(=O)[C@H](Cc1ccc(F)cc1)NCc1cscn1 [Example 54.5, (S)-Methyl 1-(3-(4-fluorophenyl)-2-(thiazol-4-ylmethylamino)propanoyl)-6-(pyridin-4-yl)indoline-4-carboxylate]
